Molecules are shown by their SMILES. Where only a bound is given, the exact number is not on record here.

In this experiment the target is T1, human CYP17 (Homo sapiens, UniProt P05093).
T1 sequence (P05093 1-508): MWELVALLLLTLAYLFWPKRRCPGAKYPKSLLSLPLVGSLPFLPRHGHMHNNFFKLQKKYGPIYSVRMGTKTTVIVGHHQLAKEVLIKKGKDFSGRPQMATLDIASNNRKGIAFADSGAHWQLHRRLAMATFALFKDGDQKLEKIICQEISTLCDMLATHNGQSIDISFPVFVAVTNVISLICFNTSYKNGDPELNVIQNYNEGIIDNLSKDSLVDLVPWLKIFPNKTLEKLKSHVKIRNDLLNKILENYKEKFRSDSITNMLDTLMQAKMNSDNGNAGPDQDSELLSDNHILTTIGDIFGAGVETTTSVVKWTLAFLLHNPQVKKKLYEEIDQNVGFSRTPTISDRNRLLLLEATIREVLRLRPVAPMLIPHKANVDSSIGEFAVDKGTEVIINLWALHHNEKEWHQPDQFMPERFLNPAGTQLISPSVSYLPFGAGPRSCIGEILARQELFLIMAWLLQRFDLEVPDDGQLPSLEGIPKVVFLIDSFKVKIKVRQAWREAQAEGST
As to the kind of experiment: Cell-based human CYP17 inhibition assay, H295R adrenocortical carcinoma cells. More on the design: H295R Adrenocortical carcinoma cells [NCI-H295A, ATCC Number CRL-2128, American Type Culture Collection; host or cells: H295R adrenocortical carcinoma cells. Particulars: 16 hours at 37° C., read-out: CYP17 (human H295R adrenal cells). As to the method:
Cell-Based Human CYP17 Inhibition Assay
A. Materials • 1. H295R Adrenocortical Carcinoma Cells and Growth Media: The media for the H295R Adrenocortical carcinoma cells [NCI-H295A, ATCC Number CRL-2128, American Type Culture Collection, Manassas, Va., US] (500 mL) was a DMEM:F12 Mix 1:1 with 5% […] BD Nu Serum; 1% (5 mL) ITS+Premix [BD Biosciences] and 1% Penstrep. • 2. LNCap-CYP17 Cells and Growth Media: Full length hCYP17a1 gene (NCBI Reference Sequence: NM_000102.3) was cloned in pCDNA3.1(+) vector between HindIII and XhoI site. The pCDNA3.1(+) vector contains the Neomycin resistance gene and was used for selection of stable cell line. The hCYP17a1 containing pCDNA3.1(+) was transfected into LNCap cells to create the LNCap-CYP17 cell line. The media for the LNCaP-CYP17 cells was RPMI 1640, 10% FBS, 1% PenStrep, Geneticin 400 μg/mL.
The H295R cells or LNCaP-hCYP17 cells were subcultured and 30,000 cells per well were seeded in a poly-d lysine plate and incubated overnight at 37° C. The next day the media was removed and 200 µL of fresh media with ^3H3-17α-hydroxy-pregnenolone (1:1000) was added. 50 μL of serially diluted compounds from a 5× plate (5 times the final desired concentration) was added. The working concentration range for active, new compounds started from a high concentration of […] with 3-fold serial dilutions generating up to 10 concentrations. The serial dilution in the 100× plate (in DMSO) and the stamping of a 5× plate (in media) from the 100× plate were carried out using a TECAN liquid handling device.
The plates were incubated overnight (16 hours) at 37° C. After 16 hours, the media was removed (approximately 220 μL) and an equal amount of chloroform was added, mixed and incubated for 30 minutes at 4 degrees. The plate was centrifuged at 4000 rpm for 15 minutes at 4° C., following which the top aqueous layer was carefully removed and added into a new deep well plate. An equal volume of activated 5% charcoal was added, mixed and incubated for 30 minutes at 4° C. The plate was then centrifuged at 4000 rpm for 15 minutes at 4° C. and the top layer carefully separated, avoiding any charcoal contamination, and placed in a white, clear bottom plate (plate cat #3610, Corning Life Sciences). An equal volume of Microscint™ 40 was added and mixed well. Following the incubation for 30 minutes, readings for the radiotracer were taken using a Microbeta® trilux.
Consider `CCC(c1ccc(-c2ccc(C(=O)NC)cc2)cn1)n1ccnc1` (stereo not drawn) [Example 9, 4-(6-(1-(1H-imidazol-1-yl)propyl)pyridin-3-yl)-N-methylbenzamide], for which the IC50 is 201 to 10000 nM.

Consider `CCC(c1cnc(-c2ccc(NC(=O)OC(C)(C)C)cc2)s1)n1ccnc1` (stereo not drawn) [Example 31, {4-[5-(1-Imidazol-1-yl-propyl)-thiazol-2-yl]-phenyl}-carbamic acid tert-butyl ester], for which the IC50 is less than 50 nM.

Take `CC(C)(c1ccc(-c2ccc(O)cc2)cn1)n1ccnc1` [Example 52, 4-[6-(1-Imidazol-1-yl-1-methyl-ethyl)-pyridin-3-yl]-phenol]: the IC50 fell in the range of 50 to 200 nM.

Regarding `CCC(c1ccc(-c2cccc(OC)c2)cn1)n1ccnc1` (stereo not drawn) [Example 7, 2-(1-(1H-imidazol-1-yl)propyl)-5-(3-methoxyphenyl)pyridine], the IC50 was less than 50 nM.

For the compound `CCC(c1ccc(-c2ccc(C(=O)O)cc2)cn1)n1ccnc1` (stereo not drawn) [Example 6, 4-(6-(1-(1H-imidazol-1-yl)propyl)pyridin-3-yl)benzoic acid], the IC50 was in the range of 201 to 10000 nM.

As to `CCC(c1cnc(-c2ccc(O)cc2)s1)n1ccnc1` (stereo not drawn) [Example 60, 4-[5-(1-Imidazol-1-yl-propyl)-thiazol-2-yl]-phenol], the IC50 lay in the range of 50 to 200 nM.

Take `CCC(c1ccc(-c2ccc(C(N)=O)cc2)cn1)n1ccnc1` (stereo not drawn) [Example 10, 4-(6-(1-(1H-imidazol-1-yl)propyl)pyridin-3-yl)benzamide]: the IC50 lay in the range of 201 to 10000 nM.

In the case of `COc1ccc(-c2ccc(C(C)n3ccnc3)s2)cn1` (stereo not drawn) [Example 25, 5-[5-(1-Imidazol-1-yl-ethyl)-thiophen-2-yl]-2-methoxy-pyridine], the IC50 is less than 50 nM.

Consider `CCC(c1ccc(-c2ccc(CO)cc2)cn1)n1ccnc1` (stereo not drawn) [Example 41, {4-[6-(1-Imidazol-1-yl-propyl)-pyridin-3-yl]-phenyl}-methanol], for which the IC50 was in the range of 50 to 200 nM.

Take `CCC(c1ccc(-c2ccccc2F)cn1)n1ccnc1` (stereo not drawn) [Example 48, 5-(2-Fluoro-phenyl)-2-(1-imidazol-1-yl-propyl)-pyridine]: the IC50 was less than 50 nM.

On to `CC(c1ccc(-c2cccc(F)c2)cn1)n1ccnc1` (stereo not drawn) [Example 57, 5-(3-Fluoro-phenyl)-2-(1-imidazol-1-yl-ethyl)-pyridine], for which the IC50 fell in the range of 50 to 200 nM.

`CCC(c1ccc(-c2ccc(OC)cc2)o1)n1ccnc1` (stereo not drawn) [Example 27, 1-{1-[5-(4-Methoxy-phenyl)-furan-2-y]-propyl}-1H-imidazole]: the IC50 was less than 50 nM.

In the case of `CCC(c1nnc(-c2ccc(F)cc2)s1)n1ccnc1` (stereo not drawn) [Example 19, 2-(1-(1H-imidazol-1-yl)propyl)-5-(4-fluorophenyl)-1,3,4-thiadiazole], the IC50 was in the range of 50 to 200 nM.

Take `CCC(c1ccc(-c2cccc(F)c2)cn1)n1ccnc1` (stereo not drawn) [Example 45, 5-(3-Fluoro-phenyl)-2-(1-imidazol-1-yl-propyl)-pyridine]: the IC50 is less than 50 nM.

As to `COc1ccc(-c2ccc(C(C)n3ccnc3)s2)cc1` (stereo not drawn) [Example 36, 1-{1-[5-(4-Methoxy-phenyl)-thiophen-2-yl]-ethyl}-1H-imidazole], the IC50 is less than 50 nM.

Regarding `COc1ccc(-c2ccc(C(C)(C)n3ccnc3)nc2)cc1` [Example 61, 2-(1-Imidazol-1-yl-1-methyl-ethyl)-5-(4-methoxy-phenyl)-pyridine], the IC50 was 50 to 200 nM.

Take `COc1ccc(-c2cccnc2C(C)n2ccnc2)cc1` (stereo not drawn) [Example 66, 2-(1-(1H-imidazol-1-yl)ethyl)-3-(4-methoxyphenyl)-pyridine]: the IC50 is less than 50 nM.

For `CCC(c1ccc(-c2cccc(O)c2)cn1)n1ccnc1` (stereo not drawn) [Example 8, 3-(6-(1-(1H-imidazol-1-yl)propyl)pyridin-3-yl)phenol], the IC50 is less than 50 nM.

`CC(c1ccc(-c2ccc(F)cc2)cn1)n1ccnc1` (stereo not drawn) [Example 34, 5-(4-Fluoro-phenyl)-2-(1-imidazol-1-yl-ethyl)-pyridine]: the IC50 was less than 50 nM.

Consider `CCOC(=O)c1ccc(-c2ncc(C(C)n3ccnc3)s2)cc1` (stereo not drawn) [Example 55, 4-[5-(1-Imidazol-1-yl-ethyl)-thiazol-2-yl]-benzoic acid ethyl ester], for which the IC50 lay in the range of 50 to 200 nM.

Take `CCC(c1ccc(-c2ccc(NC(C)=O)cc2)cn1)n1ccnc1` (stereo not drawn) [Example 43, N-{4-[6-(1-Imidazol-1-yl-propyl)-pyridin-3-yl]-phenyl}-acetamide]: the IC50 was in the range of 50 to 200 nM.

Turning to `CC(c1cnc(-c2ccc(F)cc2F)s1)n1ccnc1` (stereo not drawn) [Example 28, 2-(2,4-Difluoro-phenyl)-5-(1-imidazol-1-yl-ethyl)-thiazole], the IC50 was less than 50 nM.

With `CC(c1cnc(-c2ccc(C(=O)O)cc2)s1)n1ccnc1` (stereo not drawn) [Example 65, 4-[5-(1-Imidazol-1-yl-ethyl)-thiazol-2-yl]-benzoic acid], the IC50 lay within 201 to 10000 nM.

Regarding `CC(=O)Nc1ccc(-c2ccc(C(C)n3ccnc3)nc2)cc1` (stereo not drawn) [Example 64, N-{4-[6-(1-Imidazol-1-yl-ethyl)-pyridin-3-yl]-phenyl}-acetamide], the IC50 fell in the range of 201 to 10000 nM.

As for `CCC(c1cnc(-c2cccc(F)c2)s1)n1ccnc1` (stereo not drawn) [Example 1, 5-(1-(1H-imidazol-1-yl)propyl)-2-(3-fluorophenyl)thiazole], the IC50 was in the range of 50 to 200 nM.

Turning to `CCC(c1ccc(-c2cccc(C#N)c2)cn1)n1ccnc1` (stereo not drawn) [Example 53, 3-[6-(1-Imidazol-1-yl-propyl)-pyridin-3-yl]-benzonitrile], the IC50 was in the range of 50 to 200 nM.

As for `COc1ccc(-c2ccc(C(CC(C)C)n3ccnc3)nc2)cc1` (stereo not drawn) [Example 62, 2-(1-Imidazol-1-yl-3-methyl-butyl)-5-(4-methoxy-phenyl)-pyridine], the IC50 is 50 to 200 nM.

For the compound `CC(C)CC(c1ccc(-c2ccc(O)cc2)s1)n1ccnc1` (stereo not drawn) [Example 23, 4-(5-(1-(1H-imidazol-1-yl)-3-methylbutyl)-thiophen-2-yl)phenol], the IC50 is less than 50 nM.

For the compound `CCC(c1cnc(-c2ccc(F)cc2F)s1)n1ccnc1` (stereo not drawn) [Example 32, 2-(2,4-Difluoro-phenyl)-5-(1-imidazol-1-yl-propyl)-thiazole], the IC50 was less than 50 nM.

`CCC(c1cccc(-c2ccc(OC)cc2)n1)n1ccnc1` (stereo not drawn) [Example 38, 2-(1-Imidazol-1-yl-propyl)-6-(4-methoxy-phenyl) pyridine]: the IC50 was in the range of 50 to 200 nM.

With `COc1ccc(-c2ncc(C(C)n3ccnc3)s2)cn1` (stereo not drawn) [Example 58, 5-[5-(1-Imidazol-1-yl-ethyl)-thiazol-2-yl]-2-methoxy-pyridine], the IC50 was in the range of 50 to 200 nM.

With `CC(c1ccc(-c2ccc(=O)n(C(C)C)c2)s1)n1ccnc1` (stereo not drawn) [Example 21, 5-(5-(1-(1H-imidazol-1-yl)ethyl)thiophen-2-yl)-1-isopropylpyridin-2(1H)-one], the IC50 is 50 to 200 nM.

As for `CCc1cc(F)ccc1-c1ncc(C(CC)n2ccnc2)s1` (stereo not drawn) [Example 46, 2-(2-Ethyl-4-fluoro-phenyl)-5-(1-imidazol-1-yl-propyl)-thiazole], the IC50 is less than 50 nM.

As to `CCC(c1ccc(-c2ccc(O)cc2)cn1)n1ccnc1` (stereo not drawn) [Example 50, 4-[6-(1-Imidazol-1-yl-propyl)-pyridin-3-yl]-phenol], the IC50 was less than 50 nM.

`CC(C)(c1ccc(-c2ccc(O)cc2)s1)n1ccnc1` [Example 26, 4-[5-(1-Imidazol-1-yl-1-methyl-ethyl)-thiophen-2-yl]-phenol]: the IC50 was less than 50 nM.

Consider `CCC(c1ccc(-c2ccc(OC)cc2)s1)n1ccnc1` (stereo not drawn) [Example 3, 1-(1-(5-(4-methoxyphenyl)thiophen-2-yl)propyl)-1H-imidazole], for which the IC50 was less than 50 nM.

The values above are taken from patent US9199975B2, “Biaryl imidazole derivatives for regulating CYP17” (Asana Biosciences, LLC, priority 2011, dated 2015).
